Consider eight molecules from PubChem BioAssay (NCI).

Molecules are shown by their SMILES.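 Protocol summary: plate cells (96-well), add compound at 5 concentrations, incubate 48 h, interpolate endpoints linearly. GI50 is the concentration that inhibits growth by half. The concentration for full growth arrest is given as TGI.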

Test systems include UACC-62 melanoma; OVCAR-4 ovarian; KM12 colon; SK-MEL-5 melanoma; 786-0 renal; MDA-MB-231 breast; OVCAR-8 ovarian; U251 CNS; K-562 leukemia; ACHN renal.
Holding throughout (experiment): NCI-60 cell line screen, 48 h

For `CN(Cc1ccccc1)Cn1ccnc1`, the TGI is above 100 µM in the assay with UACC-62 melanoma; above 100 µM with OVCAR-4 ovarian; above 100 µM with KM12 colon; above 63.4 µM in the assay on SK-MEL-5 melanoma; above 100 µM in the assay on 786-0 renal; 98.1 µM in the assay with MDA-MB-231 breast. In addition, the TGI in the assay with OVCAR-8 ovarian, with U251 CNS, in the assay on K-562 leukemia and with ACHN renal was above 100 µM in each case.
As to `CNC(=O)c1ccc(N2C(=S)N(c3cnc(C#N)c(C(F)(F)F)c3)C(=O)C23CCC3)cc1F`, the GI50 with UACC-62 melanoma was above 70.5 µM; in the assay with OVCAR-4 ovarian it was above 79.2 µM; in the assay with KM12 colon, above 100 µM; in the assay on SK-MEL-5 melanoma, above 100 µM; with 786-0 renal it was above 100 µM; with MDA-MB-231 breast, above 100 µM. Also, the GI50 in the assay on OVCAR-8 ovarian, in the assay on U251 CNS, in the assay with K-562 leukemia and in the assay with ACHN renal was above 100 µM throughout. Also, the TGI in the assay with UACC-62 melanoma, in the assay on OVCAR-4 ovarian, in the assay on KM12 colon, with SK-MEL-5 melanoma, in the assay on 786-0 renal and in the assay with MDA-MB-231 breast was above 100 µM each time. In addition, the TGI in the assay with OVCAR-8 ovarian, with U251 CNS, with K-562 leukemia and in the assay on ACHN renal was above 100 µM in each case.
On to `Cc1onc(-c2ccccc2)c1C(=O)N/N=C/c1cc(Cl)cc(Cl)c1O`, for which the GI50 in the assay on UACC-62 melanoma was 2.16 µM; in the assay with OVCAR-4 ovarian, 2.07 µM; with KM12 colon, 5.54 µM; with SK-MEL-5 melanoma it was 3.47 µM; with 786-0 renal, 5.01 µM; in the assay on MDA-MB-231 breast it was 4.27 µM. The GI50 in the assay on OVCAR-8 ovarian is 3.59 µM; in the assay with U251 CNS it was 3.19 µM; in the assay on K-562 leukemia, 4.58 µM; in the assay on ACHN renal, 2.67 µM. Also, the TGI in the assay on UACC-62 melanoma was 6.83 µM; with OVCAR-4 ovarian, above 100 µM; in the assay with KM12 colon, above 100 µM; in the assay with SK-MEL-5 melanoma, 21.1 µM; with 786-0 renal it was 50.7 µM; in the assay with MDA-MB-231 breast it was 35.7 µM. The TGI in the assay on OVCAR-8 ovarian was above 100 µM; in the assay on U251 CNS, 57.6 µM; in the assay with K-562 leukemia, 55.9 µM; in the assay on ACHN renal it was above 100 µM.
For the molecule `O=C(CN(/C=C/C(=O)C(F)(F)F)c1ccc(Cl)cc1)c1ccc(Cl)cc1`, the GI50 with UACC-62 melanoma was 3.03 µM; in the assay on OVCAR-4 ovarian, 12 µM; in the assay on KM12 colon, 3.59 µM; in the assay on SK-MEL-5 melanoma, 11.6 µM; in the assay on 786-0 renal, 18.6 µM; with MDA-MB-231 breast, 11.5 µM. In addition, the GI50 with OVCAR-8 ovarian is 10.8 µM; in the assay on U251 CNS, 7.53 µM; in the assay with K-562 leukemia, 5.93 µM; with ACHN renal, 8.01 µM. Also, the TGI in the assay on UACC-62 melanoma is 13.4 µM; in the assay with OVCAR-4 ovarian, 32.4 µM; in the assay with KM12 colon, 20.8 µM; with SK-MEL-5 melanoma, 24.3 µM; in the assay on 786-0 renal it was 65.1 µM; with MDA-MB-231 breast it was 23.7 µM. Further, the TGI in the assay on OVCAR-8 ovarian is 26.9 µM; in the assay with U251 CNS, 20.5 µM; in the assay on K-562 leukemia it was 32.5 µM; in the assay on ACHN renal, 20.7 µM.
Take `CC(=O)O[C@@H]1C2CCC3C(CC[C@@]4(C)C3CC[C@@H]4C(C)N(C)C)[C@@]2(C)CC[C@@H]1NC(=O)C=C(C)C` (stereo partly drawn): the GI50 was 2.03 µM in the assay on UACC-62 melanoma; 3.51 µM with OVCAR-4 ovarian; 2.66 µM in the assay on KM12 colon; 1.38 µM with SK-MEL-5 melanoma; 2.42 µM in the assay on 786-0 renal; 2.24 µM with MDA-MB-231 breast. Besides, the GI50 in the assay on OVCAR-8 ovarian was 4.64 µM; with U251 CNS it was 2.22 µM; in the assay with K-562 leukemia, 1.1 µM; with ACHN renal, 3.56 µM. For the same molecule, the TGI with UACC-62 melanoma came to 3.96 µM; in the assay with OVCAR-4 ovarian, 17.2 µM; with KM12 colon, 9.5 µM; with SK-MEL-5 melanoma, 2.68 µM; in the assay on 786-0 renal, 6.73 µM; in the assay with MDA-MB-231 breast it was 5.19 µM. Moreover, the TGI with OVCAR-8 ovarian was above 35.7 µM; in the assay with U251 CNS it was 8.61 µM; with K-562 leukemia, 3.15 µM; in the assay on ACHN renal it was 12.8 µM.
For the molecule `O=C(O)CSc1n[nH]c(=O)[nH]c1=O`, the TGI in the assay on UACC-62 melanoma, in the assay on OVCAR-4 ovarian, in the assay with KM12 colon, in the assay with SK-MEL-5 melanoma, in the assay with 786-0 renal and in the assay on MDA-MB-231 breast was above 100 µM throughout. In addition, the TGI in the assay with OVCAR-8 ovarian, in the assay on U251 CNS, in the assay with K-562 leukemia and in the assay on ACHN renal was above 100 µM each time.
Take `CCCCCCCCCCCCCCCC1=NCC[N+]1(CCO)CCO`: the GI50 in the assay on UACC-62 melanoma was 1.77 µM; in the assay with OVCAR-4 ovarian it was 4.75 µM; in the assay on KM12 colon, 1.78 µM; in the assay with SK-MEL-5 melanoma, 4.39 µM; with 786-0 renal, 1.64 µM; in the assay with MDA-MB-231 breast it was 1.81 µM. For the same molecule, the GI50 is 3.03 µM with OVCAR-8 ovarian, 1.64 µM in the assay with U251 CNS, 1.36 µM in the assay with K-562 leukemia and 2.53 µM with ACHN renal. Also, the TGI worked out at 3.27 µM in the assay on UACC-62 melanoma; 26.5 µM with OVCAR-4 ovarian; 3.52 µM in the assay on KM12 colon; 16.1 µM with SK-MEL-5 melanoma; 3 µM with 786-0 renal; 3.51 µM in the assay with MDA-MB-231 breast. In addition, the TGI was 8.36 µM in the assay on OVCAR-8 ovarian, 3.03 µM with U251 CNS, 2.82 µM with K-562 leukemia and 6.64 µM with ACHN renal.
In the case of `CN[C@H]1CN(c2ccc3c(=O)c(C(=O)O)cn(-c4nccs4)c3n2)C[C@@H]1OC`, the GI50 is 0.359 µM in the assay on UACC-62 melanoma; 2.27 µM with OVCAR-4 ovarian; 1.37 µM in the assay with KM12 colon; 0.831 µM with SK-MEL-5 melanoma; 0.426 µM in the assay on 786-0 renal; 1.52 µM with MDA-MB-231 breast. Moreover, the GI50 in the assay with OVCAR-8 ovarian was 0.457 µM; in the assay on U251 CNS it was 0.42 µM; in the assay on K-562 leukemia, 0.632 µM. Further, the TGI in the assay with UACC-62 melanoma turned out to be 1.95 µM; in the assay on OVCAR-4 ovarian, 9.22 µM; in the assay on KM12 colon, 13.9 µM; with SK-MEL-5 melanoma, 2.23 µM; with 786-0 renal, 6.18 µM; in the assay on MDA-MB-231 breast it was 6.92 µM. Further, the results for the TGI with OVCAR-8 ovarian, with U251 CNS and in the assay with K-562 leukemia were 3.73 µM, 7.23 µM and 5.81 µM, respectively.
